Tests used:
[1] = target: T1, Mcl-1 (Homo sapiens, UniProt Q07820); assay: Target expression analysis by western blot (Mcl-1) in IGROV1-R10 cells; type: cell-based; conditions: 24 h exposure, 1 μM
T1 construct: endogenous in cells; host or cells: IGROV1-R10 (human platinum-resistant ovarian carcinoma)
Procedure: (§1) Human platinum resistant ovarian carcinoma cells IGROV1-R10 were used. This cell line was grown in RPMI 1640 medium supplemented with 2 mM Glutamax™, 25 mM HEPES, 10% fetal calf serum, and 33 mM sodium bicarbonate (Fisher Scientific, Illkirch, France). Cells were maintained at 37° C. in a humid atmosphere with 5% C02. Cells were seeded in 25 cm^2 flasks. After 24 h, exponentially growing cells were exposed to 1 μM of compounds for 24 h. CRBN-PBM1-001 targeting both Mcl-1 and CRBN and Pyridoclax were designed and synthetized by the CERMN (Centre d'Etudes et de Recherche sur le Médicament de Normandie) and dissolved in DiMethyl SulfOxide (DMSO, Sigma-Aldrich).
(§2) Cells were rinsed with ice-cold PBS, suspended in a lysis buffer [RIPA: NaCl 150 mM, Tris (pH 8) 50 mM, Triton X100 1%, PMSF 4 mM, EDTA 5 mM, NaF 10 mM, NaPPi 10 mM, Na3VO4 1 mM, aprotinin 0.5 μL/mL and 4.6 mL ultra-pure water] and incubated on ice for 30 min. Lysates were collected after centrifugation (13200 g, 10 min, 4° C.) and protein concentrations were determined using the Bradford assay (Bio-Rad, Hercules, USA). Equal amounts of protein (25 μg) were separated by SDS-PAGE on a 4-15% gradient polyacrylamide Mini-PROTEAN®TGX™ precast gel (Bio-Rad). […] The relative intensities of the protein bands were quantified using the ImageJ software, and the values were normalized to the intensities of the respective Actin signals. […]

[2] = target: T2, Bcl-xL (Homo sapiens, UniProt Q07817); assay: Target expression analysis by western blot (Bcl-xL) in IGROV1-R10 cells; type: cell-based; conditions: 24 h exposure, 1 μM
T2 construct: endogenous in cells; host or cells: IGROV1-R10 (human platinum-resistant ovarian carcinoma)
T2 sequence (Q07817 whole entry): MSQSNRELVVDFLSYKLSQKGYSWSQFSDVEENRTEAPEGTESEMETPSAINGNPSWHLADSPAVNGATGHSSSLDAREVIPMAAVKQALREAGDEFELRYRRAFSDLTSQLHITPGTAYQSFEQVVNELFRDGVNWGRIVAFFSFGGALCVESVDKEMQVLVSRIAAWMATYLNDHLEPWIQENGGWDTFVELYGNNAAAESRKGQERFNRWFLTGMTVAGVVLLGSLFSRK
Procedure: as §1, §2

T1 sequence (Q07820 whole entry): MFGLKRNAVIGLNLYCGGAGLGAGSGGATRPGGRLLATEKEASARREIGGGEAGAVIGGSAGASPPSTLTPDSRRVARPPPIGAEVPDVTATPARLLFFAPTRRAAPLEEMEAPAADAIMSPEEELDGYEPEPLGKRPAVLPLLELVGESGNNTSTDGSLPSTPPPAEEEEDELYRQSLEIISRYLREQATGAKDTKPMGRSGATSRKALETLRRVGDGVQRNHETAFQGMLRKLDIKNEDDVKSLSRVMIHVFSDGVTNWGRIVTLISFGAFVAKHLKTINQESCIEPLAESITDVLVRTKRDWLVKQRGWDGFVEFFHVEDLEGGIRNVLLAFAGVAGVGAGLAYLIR

SMILES | Mcl-1 expression (modulation) ([1]; single agent, western blot) | Bcl-xL expression [2] | decrease of Mcl-1 expression ([1]; densitometry analysis of western blot normalized to Actin) [%]
Cc1cc(-c2ncc(-c3cccnc3)cc2/C=C/c2ccccc2)cnc1-c1cccnc1 [Pyridoclax, reference compound] | did not modulate |  | 
Cc1cc(-c2ncc(C#CCOCCOCCNc3cccc4c3C(=O)N(C3CCC(=O)NC3=O)C4=O)cc2/C=C/c2ccccc2)cnc1-c1cccnc1 (stereo not drawn) [CRBN-PBM1-001] |  | not affected | 52
